Measurements as given in US11939340B2, “CDK inhibitors and their use as pharmaceuticals” (Prelude Therapeutics Incorporated, priority 2022, dated 2024).

Tests used:
CDK2/Cyclin E2 = CDK2/Cyclin E2 (Homo sapiens, UniProt P24941); test: CDK2/CyclinE2 Enzymatic Activity Assay (TR-FRET); type: biochemical; settings: CDK2/CyclinE2 1 nM, ATP 1 mM, read-out: CDK2_El IC50
Method in brief: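 TR-FRET kinase assay with insect-cell CDK2/Cyclin E2 (1 nM) phosphorylating ULight-4E-BP1 (50 nM) at 1 mM ATP in HEPES pH 7.4 buffer; 9-dose 3-fold series preincubated 20 min, reaction started with 10 mM MgCl2, 45 min at 37 °C. EDTA quench, Eu-anti-P-4E-BP1 detection; IC50 from 4-parameter fit.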

CDK4/Cyclin D1 = biological target: T1, CDK4/Cyclin D1 (Homo sapiens, UniProt P11802); test: CDK4/CyclinD1 Enzymatic Activity Assay (TR-FRET); type: biochemical; settings: CDK4/CyclinD1 1 nM, ATP 2 mM, read-out: CDK4_D1 IC50
T1 construct: purchased ProQinase; host or cells: insect cell
Method in brief: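 Insect-cell-expressed CDK4/Cyclin D1 (1 nM) phosphorylated ULight-4E-BP1 (100 nM) with 2 mM ATP in HEPES pH 7.4 buffer with TCEP, after 20 min compound preincubation; 10 mM MgCl2 started the reaction, run 45 min at 37 °C. EDTA/Eu-anti-phospho-4E-BP1 TR-FRET readout; 9-point IC50 by four-parameter fit.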

pRB in OVCAR3 cells = test: pRB ICW Assay in OVCAR3 Cells; type: cell-based; settings: Homo sapiens, OVCAR-3, incubated with compound for 2 hours, read-out: OVCAR3 p-RB ICW IC50
Method in brief: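 OVCAR3 cells seeded overnight, then exposed for 2 h at 37 °C to a 9-point half-log compound dilution series in duplicate; 10 μM reference compound defined maximum inhibition. Fixed, permeabilised cells stained in-cell western style with anti-phospho-RB antibody plus DRAQ5 nuclear stain; fluorescence read at 700 and 800 nm.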

T1 sequence (P11802 whole entry): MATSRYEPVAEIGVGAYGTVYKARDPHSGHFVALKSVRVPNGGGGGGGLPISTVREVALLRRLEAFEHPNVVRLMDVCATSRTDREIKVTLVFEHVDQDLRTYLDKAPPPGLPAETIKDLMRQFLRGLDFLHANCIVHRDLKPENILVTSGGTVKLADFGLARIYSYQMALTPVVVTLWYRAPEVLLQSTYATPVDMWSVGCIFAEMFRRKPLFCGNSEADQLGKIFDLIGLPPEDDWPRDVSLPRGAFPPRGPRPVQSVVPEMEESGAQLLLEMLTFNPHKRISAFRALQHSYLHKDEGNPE
T1 sequence (P24385 whole entry partner): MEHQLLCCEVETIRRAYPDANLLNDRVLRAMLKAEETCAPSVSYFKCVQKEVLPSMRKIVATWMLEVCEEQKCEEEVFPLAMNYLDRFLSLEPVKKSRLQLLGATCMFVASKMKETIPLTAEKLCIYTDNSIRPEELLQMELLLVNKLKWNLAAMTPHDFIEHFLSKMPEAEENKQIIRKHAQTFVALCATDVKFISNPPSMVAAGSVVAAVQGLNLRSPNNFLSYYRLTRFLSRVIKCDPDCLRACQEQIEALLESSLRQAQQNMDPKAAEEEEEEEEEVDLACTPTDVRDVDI

CCC12CC(N)CN1C(=O)c1cc(-c3nc(NC4CCN(S(C)(=O)=O)CC4)ncc3C(F)(F)F)sc12 (stereo not drawn) [Example 40, 7-Amino-8a-ethyl-2-(2-((1-(methylsulfonyl)piperidin-4-yl)amino)-5-(trifluoromethyl)pyrimidin-4-yl)-6,7,8,8a-tetrahydro-4H-thieno[2,3-a]pyrrolizin-4-one]
IC50 (CDK2/Cyclin E2): ≤ 0.1 µM
IC50 (CDK4/Cyclin D1): ≤ 0.1 µM
IC50 (pRB in OVCAR3 cells): ≤ 0.1 µM

CCC12CC(NC)CN1C(=O)c1cc(-c3nc(NC4CCN(S(C)(=O)=O)CC4)ncc3C(F)(F)F)sc12 (stereo not drawn) [Example 38, 8a-Ethyl-7-(methylamino)-2-(2-((1-(methylsulfonyl)piperidin-4-yl)amino)-5-(trifluoromethyl)pyrimidin-4-yl)-6,7,8,8a-tetrahydro-4H-thieno[2,3-a]pyrrolizin-4-one]
IC50 (CDK2/Cyclin E2): ≤ 0.1 µM
IC50 (CDK4/Cyclin D1): ≤ 0.1 µM
IC50 (pRB in OVCAR3 cells): ≤ 0.1 µM

CC12CCCCN1C(=O)c1cc(-c3nc(NC4CCN(S(C)(=O)=O)CC4)ncc3F)sc12 (stereo not drawn) [Example 6, 2-(5-Fluoro-2-((1-(methylsulfonyl)piperidin-4-yl)amino)pyrimidin-4-yl)-9a-methyl-7,8,9,9a-tetrahydrothieno[2,3-a]indolizin-4(6H)-one]
IC50 (CDK2/Cyclin E2): ≤ 0.1 µM
IC50 (CDK4/Cyclin D1): ≤ 0.1 µM
IC50 (pRB in OVCAR3 cells): ≤ 0.1 µM

CC(C)C12CC(CO)CN1C(=O)c1cc(-c3nc(NC4CCN(S(C)(=O)=O)CC4)ncc3C(F)(F)F)sc12 (stereo not drawn) [Example 31, 7-(Hydroxymethyl)-8a-isopropyl-2-(2-((1-(methylsulfonyl)piperidin-4-yl)amino)-5-(trifluoromethyl)pyrimidin-4-yl)-6,7,8,8a-tetrahydro-4H-thieno[2,3-a]pyrrolizin-4-one]
IC50 (CDK2/Cyclin E2): ≤ 0.1 µM
IC50 (CDK4/Cyclin D1): ≤ 0.1 µM
IC50 (pRB in OVCAR3 cells): ≤ 0.1 µM

COC1CN2C(=O)c3cc(-c4nc(NC5CCN(S(C)(=O)=O)CC5)ncc4C(F)(F)F)sc3C2(C(C)C)C1 (stereo not drawn) [Example 30, 8a-Isopropyl-7-methoxy-2-(2-((1-(methylsulfonyl)piperidin-4-yl)amino)-5-(trifluoromethyl)pyrimidin-4-yl)-6,7,8,8a-tetrahydro-4H-thieno[2,3-a]pyrrolizin-4-one]
IC50 (CDK2/Cyclin E2): ≤ 0.1 µM
IC50 (CDK4/Cyclin D1): ≤ 0.1 µM
IC50 (pRB in OVCAR3 cells): 0.1 to 0.5 µM

CCC12CC(O)CN1C(=O)c1cc(-c3nc(NC4CCN(S(C)(=O)=O)CC4)ncc3C(F)(F)F)sc12 (stereo not drawn) [Example 33, 8a-Ethyl-7-hydroxy-2-(2-((1-(methylsulfonyl)piperidin-4-yl)amino)-5-(trifluoromethyl)pyrimidin-4-yl)-6,7,8,8a-tetrahydro-4H-thieno[2,3-a]pyrrolizin-4-one]
IC50 (CDK2/Cyclin E2): ≤ 0.1 µM
IC50 (CDK4/Cyclin D1): ≤ 0.1 µM
IC50 (pRB in OVCAR3 cells): ≤ 0.1 µM

CS(=O)(=O)N1CCC(Nc2ncc(C(F)(F)F)c(-c3cc4c(s3)C3(CCF)CCCN3C4=O)n2)CC1 (stereo not drawn) [Example 19, 8a-(2-Fluoroethyl)-2-(2-((1-(methylsulfonyl)piperidin-4-yl)amino)-5-(trifluoromethyl)pyrimidin-4-yl)-6,7,8,8a-tetrahydro-4H-thieno[2,3-a]pyrrolizin-4-one]
IC50 (CDK2/Cyclin E2): ≤ 0.1 µM
IC50 (CDK4/Cyclin D1): ≤ 0.1 µM
IC50 (pRB in OVCAR3 cells): ≤ 0.1 µM
